Reference: patent publication US8841342B2, “Carrier” (Vital Health Sciences Pty. Ltd., priority 2002, dated 2014)

How the values were obtained:
[1] = cited from earlier work
[2] = Transdermal delivery of testosterone and testosterone phosphate in ovariectomised hairless rats, total testosterone in plasma; type: in vivo, Female albino hairless rats; settings: for concentration of testosterone in blood: topical 1 μg in carrier of Example 1
Protocol: Animals: 12 Female albino hairless rats were ovariectomised under isoflurane-induced anesthesia and allowed to recover for 15 days prior to experimentation.
Plasma was removed and stored at −80° C. until assay.
Testosterone Phosphate (TP): 4.41 mg of TP was dissolved in 15 ml of water and then made up to 100 ml with ethanol. […] This was repeated 5 times.
Testosterone (T): 3.94 mg of T was dissolved in 15 ml of water and then made up to 100 ml with ethanol. […] This was repeated 5 times.

[3] = Acute transdermal penetration of 3H-estradiol and 3H-estradiol phosphate in the hairless rat; type: in vivo, female albino hairless rats; settings: 24 hour period
Protocol: Animals: 6 female albino hairless rats were used in this study (n=3 per treatment group).
Transdermal Formulation Preparation and Application: ^3H-E and ^3H-EP were provided by Vital Health Sciences Pty Ltd and prepared in formula approximately 1 hour before application in the carrier cream from Example 1.
The solvents from both ^3H-E and ^3H-EP were evaporated under a stream of nitrogen. Once completely dry 0.498 g of the carrier cream of example 1 was added to ^3H-E and 0.502 g to ^3H-EP and mixed with a glass rod and centrifuged for 1 minute. This was repeated 5 times.
Each formulation was applied to the dorsal skin of an anaesthetised rat in an area of approximately 4 cm^2 marked with an indelible felt tip marker. […] The formulation was ‘rubbed’ in until it appeared to have been absorbed into the skin, which took between 5 to 10 minutes. A tegaderm (3M) patch was applied to the area to prevent animals from removing the formulation.

[4] = Transdermal delivery of estradiol and estradiol phosphate in ovariectomised hairless rats, total estrogens RIA in plasma
Protocol: Animals: 23 female albino hairless rats were ovariectomised under isoflurane-induced anaesthesia and allowed to recover for 10 days prior to experimentation.
Blood was collected into EDTA tubes, then centrifuged at 5000 rpm for 10 minutes. Plasma was removed and stored at −80° C. until assayed.
20 μl was transferred to an Eppendorf tube and the solvent was evaporated in a nitrogen stream. Then 0.999 g of the carrier cream from example 1 was added, and mixed with a glass rod and centrifuged. This was repeated 5 times. Final concentration=4.90 μg/ml.
20 μl was transferred to an Eppendorf tube and the solvent was evaporated in a nitrogen stream. Then 1.003 g of the carrier cream from example 1 was added, and mixed with a glass rod and centrifuged. This was repeated 5 times. Final concentration=4.89 μg/ml.
20 μl of these solutions was directly applied to the skin.
Each formulation was applied to the dorsal skin of an anaesthetised rat in an area of approximately 4 cm^2 marked with an indelible felt tip marker. […] The formulation was ‘rubbed’ in until it appeared to have been absorbed into the skin, which took between 5-10 min. […]
The standard curve range for this assay is 2.5-100 pg/ml (r^2=−0.943). Extraction efficiency was determined through a series of spiking assays and was between 90 to 98% using diethyl ether as the extraction solvent for rat plasma and organs. […]

## C[C@]12CC[C@@H]3c4ccc(O)cc4CC[C@H]3[C@@H]1CC[C@@H]2O [E, estradiol]
[1]; 3 mg daily over 30 cm2, carrier with padimate O, 4 women, 9 days
  mean blood levels of estradiol 24 hours post dose: 0.053 ± 0.007 ng/mL
[1]; baseline 13±5 pg/ml
  improvement of circulating estradiol from baseline: 4 fold

## C[C@]12CC[C@H]3[C@@H](CCC4=CC(=O)CC[C@@]43C)[C@@H]1CC[C@@H]2O [T, testosterone]
[2]
  concentration of testosterone in blood: increased
[2]; topical 1 μg in carrier of Example 1, baseline subtracted
  maximum concentration of total testosterone in plasma (mean±SD): 30.90 ± 11.00 pg/mL

## testosterone phosphate [TP]
[2]
  concentration of testosterone in blood: increased

## C[C@]12CC[C@@H]3c4ccc(O)cc4CC[C@H]3[C@@H]1CC[C@@H]2OP(=O)(O)O [EP, estradiol 3:phosphate]
[3]
  levels in epidermis and dermis: Higher levels of EP were found in the epidermis and dermis
[4]; equivalent doses in carrier of Example 1, over 24 hours
  plasma concentration of the hormone, EP versus E treatment: at least twice the plasma concentration of the hormone compared to the E treatment
[4]; topical in carrier cream of Example 1
  inflammatory symptoms (erythema, oedema) at the application site: neither E or EP treatment produced any inflammatory symptoms
